Results from ChEMBL document CHEMBL1697731, “Cheminformatics analysis of assertions mined from literature that describe drug-induced liver injury in different species” (Chem Res Toxicol, 2010).
*1 amine or outer side, *2 acyl side, *3 side chain or, on linkers, in order; H or OH if unused. Where a SMILES comes first, the peptide text is derived from it. Bridges are numbered along the chain shown (N, C = ends). [ ]: non-standard residue; d: D form. The star is where a group is joined. hTyr(3S-OH,4S-OH,3'-OSO3H) = N[C@H](C(=O)O)[C@H](O)[C@@H](O)c1ccc(O)c(OS(=O)(=O)O)c1; Orn(4R-OH,5R-OH) = O=C([C@H](C[C@@H](O)[C@@H](O)N[*:3])N[*:1])[*:2]; Pro(3S-OH,4S-Me) = C[C@H]1CN[C@H](C(=O)O)[C@H]1O; X1 = CCCCCOc1ccc(-c2cc(-c3ccc(C(=O)*)cc3)no2)cc1; Gln(3R-OH) = NC(=O)C[C@@H](O)[C@H](N)C(=O)O; Hyp = O=C(O)[C@@H]1C[C@@H](O)CN1

Experiments:
[1] = test system: Hepatotoxicity; assay: Literature-mined compound from Fourches et al multi-species drug-induced liver injury (DILI) dataset, effect in rodents; details: rodentia
[2] = test system: Hepatotoxicity; assay: Literature-mined compound from Fourches et al multi-species drug-induced liver injury (DILI) dataset, effect in non-rodents
[3] = test system: Hepatotoxicity; assay: Literature-mined compound from Fourches et al multi-species drug-induced liver injury (DILI) dataset, effect in humans; details: human

SMILES	Hepatotoxicity [1]	Hepatotoxicity [2]	Hepatotoxicity [3]	Hepatotoxicity ([1]; Liver)	Hepatotoxicity ([2]; Liver)	Hepatotoxicity ([3]; Liver)
Cc1cccc(C)c1NC(=O)C1CCCCN1C (centres undefined) [MEPIVACAINE]	drug-induced liver injury reported	no drug-induced liver injury reported	no drug-induced liver injury reported			
CCCC(C)(COC(N)=O)COC(N)=O [MEPROBAMATE]	drug-induced liver injury reported	no drug-induced liver injury reported	no drug-induced liver injury reported			
COc1ccc(O)cc1 [MEQUINOL]	drug-induced liver injury reported	no drug-induced liver injury reported	no drug-induced liver injury reported			
Sc1ncnc2nc[nH]c12 [MERCAPTOPURINE ANHYDROUS]				drug-induced liver injury reported	no drug-induced liver injury reported	drug-induced liver injury reported
C[C@@H](O)[C@H]1C(=O)N2C(C(=O)O)=C(S[C@@H]3CN[C@H](C(=O)N(C)C)C3)[C@H](C)[C@H]12 [MEROPENEM]	no drug-induced liver injury reported	no drug-induced liver injury reported	drug-induced liver injury reported			
Nc1ccc(O)c(C(=O)O)c1 [MESALAMINE]	drug-induced liver injury reported	no drug-induced liver injury reported	drug-induced liver injury reported			
O=S(=O)([O-])CCS.[Na+] [MESNA]	drug-induced liver injury reported	no drug-induced liver injury reported	no drug-induced liver injury reported			
C#C[C@]1(O)CC[C@H]2[C@@H]3CCc4cc(OC)ccc4[C@H]3CC[C@@]21C [MESTRANOL]	drug-induced liver injury reported	drug-induced liver injury reported	drug-induced liver injury reported			
CN(C)C(=N)N=C(N)N [METFORMIN]				drug-induced liver injury reported	drug-induced liver injury reported	drug-induced liver injury reported
CCC(=O)C(CC(C)N(C)C)(c1ccccc1)c1ccccc1 (centres undefined) [METHADONE]	drug-induced liver injury reported	no drug-induced liver injury reported	drug-induced liver injury reported			
CN[C@@H](C)Cc1ccccc1 [METHAMPHETAMINE]	drug-induced liver injury reported	no drug-induced liver injury reported	drug-induced liver injury reported			
Cc1ccccc1-n1c(C)nc2ccccc2c1=O [METHAQUALONE]	drug-induced liver injury reported	no drug-induced liver injury reported	no drug-induced liver injury reported			
CSCC[C@H](N)C(=O)O [METHIONINE]				drug-induced liver injury reported	drug-induced liver injury reported	drug-induced liver injury reported
C=CCC1(C(C)C#CCC)C(=O)N=C([O-])N(C)C1=O.[Na+] (centres undefined) [METHOHEXITAL SODIUM]	drug-induced liver injury reported	no drug-induced liver injury reported	no drug-induced liver injury reported			
CN(Cc1cnc2nc(N)nc(N)c2n1)c1ccc(C(=O)N[C@@H](CCC(=O)O)C(=O)O)cc1 [METHOTREXATE]	drug-induced liver injury reported	drug-induced liver injury reported	drug-induced liver injury reported			
COc1c2occc2cc2ccc(=O)oc12 [METHOXSALEN]	drug-induced liver injury reported	no drug-induced liver injury reported	drug-induced liver injury reported			
COC(F)(F)C(Cl)Cl [METHOXYFLURANE]	drug-induced liver injury reported	no drug-induced liver injury reported	drug-induced liver injury reported			
COC(=O)c1ccccc1O [METHYL SALICYLATE]	no drug-induced liver injury reported	drug-induced liver injury reported	no drug-induced liver injury reported			
C[C@](N)(Cc1ccc(O)c(O)c1)C(=O)O [METHYLDOPA]	no drug-induced liver injury reported	no drug-induced liver injury reported	drug-induced liver injury reported			
COC(=O)C(c1ccccc1)C1CCCCN1 (centres undefined) [METHYLPHENIDATE]	drug-induced liver injury reported	no drug-induced liver injury reported	drug-induced liver injury reported			
C[C@H]1C[C@@H]2[C@H]([C@@H](O)C[C@@]3(C)[C@H]2CC[C@]3(O)C(=O)CO)[C@@]2(C)C=CC(=O)C=C12 [METHYLPREDNISOLONE]	drug-induced liver injury reported	no drug-induced liver injury reported	drug-induced liver injury reported			
CCC1(CC)C(=O)NCC(C)C1=O (centres undefined) [METHYPRYLON]	drug-induced liver injury reported	no drug-induced liver injury reported	no drug-induced liver injury reported			
CCN(CC)CCNC(=O)c1cc(Cl)c(N)cc1OC [METOCLOPRAMIDE]	drug-induced liver injury reported	no drug-induced liver injury reported	drug-induced liver injury reported			
COCCc1ccc(OCC(O)CNC(C)C)cc1 (centres undefined) [METOPROLOL]	drug-induced liver injury reported	no drug-induced liver injury reported	drug-induced liver injury reported			
Cc1ncc([N+](=O)[O-])n1CCO [METRONIDAZOLE]	drug-induced liver injury reported	no drug-induced liver injury reported	drug-induced liver injury reported			
CC(C)(C(=O)c1cccnc1)c1cccnc1 [METYRAPONE]				drug-induced liver injury reported	no drug-induced liver injury reported	drug-induced liver injury reported
CN1CCN2c3ccccc3Cc3ccccc3C2C1 (centres undefined) [MIANSERIN]	drug-induced liver injury reported	no drug-induced liver injury reported	drug-induced liver injury reported			
CCCCCOc1ccc(-c2cc(-c3ccc(C(=O)N[C@H]4C[C@@H](O)[C@@H](O)NC(=O)[C@@H]5[C@@H](O)[C@@H](C)CN5C(=O)[C@H]([C@H](O)CC(N)=O)NC(=O)[C@H]([C@H](O)[C@@H](O)c5ccc(O)c(OS(=O)(=O)O)c5)NC(=O)[C@@H]5C[C@@H](O)CN5C(=O)[C@H]([C@@H](C)O)NC4=O)cc3)no2)cc1 [MICAFUNGIN] (X1-[Orn(4R-OH,5R-OH)]T[Hyp][hTyr(3S-OH,4S-OH,3'-OSO3H)][Gln(3R-OH)][Pro(3S-OH,4S-Me)]; lactam 1-C)	no drug-induced liver injury reported	no drug-induced liver injury reported	drug-induced liver injury reported			
